According to US10851067B2, “Kv7 channel activators compositions and methods of use” (Knopp Biosciences LLC, priority 2018, dated 2020):

Target: Kv7.2/7.3 (Homo sapiens, UniProt O43525+O43526)
Test: Kv7.2/7.3 Thallium Flux Assay
Type: cell-based
Parameters: host or cells: HEK cells, tetracycline-inducible expression
Conditions: read-out: Kv7.2/7.3 Activity: EC50 of Kv7.2/Kv7.3 activation
Text: The Thallium Flux Assay is used as a surrogate indicator of potassium channel activity.
The experimental protocol was adapted from the FluxOR™ II Green Potassium Ion Channel Assay User Guide (Pub. No. MAN0016084, Invitrogen). Conditions were optimized for the Kv7.2/7.3 cell line.
The hKV7.2/7.3 cell line was obtained from Chantest (Cleveland, Ohio 44128) cat. #CT6147.
Kv7.2/7.3 cells were maintained in a media containing DMEM/F12; 50/50 (GIBCO cat. #11330), 10% Fetal Bovine Serum (FBS) (GIBCO cat. #26140), 100 units/mL Penicillin-Streptomycin (GIBCO cat. #15140), 0.005 mg/ml Blasticidin (SIGMA 15205), 0.5 mg/mL Geneticin (GIBCO cat. #10131), and 0.1 mg/mL Zeocin (GIBCO cat. #R25001). One day prior to experimentation, cells were plated in 96 well clear bottom plates (Corning cat. #353219) in a media without Blasticidin, Geneticin, or Zeocin. Channel expression was induced by adding tetracycline (Bioline cat. #BIO87030) at a final concentration of 10 ng/mL.
The test compound is diluted in a mixture of 0.1% DMSO/extracellular solution with an eight-point concentration range from 0.014 μM to 30 μM. Serial dilutions were made on a Biomek NXP (BECKMAN COULTER).
Measurement and Data Analysis:
A plate reader (Enspire, Perkin Elmer) is used to characterize the ion-channel modulating properties of novel compounds using an excitation wavelength of 475 nm and an emission wavelength of 530 nm. After a 15 sec baseline measurement, the stimulus buffer containing thallium and potassium is injected. A final endpoint measure is taken after 90 sec. Responses are normalized to positive control (retigabine, 30 µM max). Mean normalized responses at each concentration tested are fit to the standard Hill equation to generate an EC50 and maximal response.

Row | SMILES | EC50
1 | CC1(n2c(NC(=O)CC3CC(F)(F)C3(F)F)nc3cc(F)c(Cl)cc32)CCC1 (single isomer, unassigned) [Example 539, N-(6-chloro-5-fluoro-1-(1-methylcyclobutyl)-1H-benzo[d]imidazol-2-yl)-2-(2,2,3,3-tetrafluorocyclobutyl)acetamide] | < 1000 nM
2 | CC(C(=O)Nc1nc2cc(F)c(F)cc2n1C1(C)CCC1)C1(C(F)(F)F)CC1 (single isomer, unassigned) [Example 540, N-(5,6-difluoro-1-(1-methylcyclobutyl)-1H-benzo[d]imidazol-2-yl)-2-(1-(trifluoromethyl)cyclopropyl)propanamide] | < 1000 nM
3 | CC1(n2c(NC(=O)CC3CC(F)(F)C3(F)F)nc3c(F)cc(C#N)c(F)c32)CCC1 (single isomer, unassigned) [Example 542, N-(6-cyano-4,7-difluoro-1-(1-methylcyclobutyl)-1H-benzo[d]imidazol-2-yl)-2-(2,2,3,3-tetrafluorocyclobutyl)acetamide] | < 1000 nM
4 | CC(C(=O)Nc1nc2c(F)cc(C#N)c(F)c2n1C1(C)CCC1)C1(C(F)(F)F)CC1 (single isomer, unassigned) [Example 543, N-(6-cyano-4,7-difluoro-1-(1-methylcyclobutyl)-1H-benzo[d]imidazol-2-yl)-2-(1-(trifluoromethyl)cyclopropyl)propanamide] | < 1000 nM
5 | CC(C(=O)Nc1nc2c(F)cc(C#N)c(F)c2n1C1(C)CCC1)C1(C(F)(F)F)CC1 (single isomer, unassigned) [Example 544, N-(6-cyano-4,7-difluoro-1-(1-methylcyclobutyl)-1H-benzo[d]imidazol-2-yl)-2-(1-(trifluoromethyl)cyclopropyl)propanamide] | < 1000 nM
6 | CC1(n2c(NC(=O)CC3CC(F)(F)C3(F)F)nc3cc(F)cc(C#N)c32)CCC1 (single isomer, unassigned) [Example 545, N-(7-cyano-5-fluoro-1-(1-methylcyclobutyl)-1H-benzo[d]imidazol-2-yl)-2-(2,2,3,3-tetrafluorocyclobutyl)acetamide] | < 1000 nM
7 | CC1(n2c(NC(=O)CC3CC(F)(F)C3(F)F)nc3cc(F)cc(C#N)c32)CCC1 (single isomer, unassigned) [Example 546, N-(7-cyano-5-fluoro-1-(1-methylcyclobutyl)-1H-benzo[d]imidazol-2-yl)-2-(2,2,3,3-tetrafluorocyclobutyl)acetamide] | < 1000 nM
8 | CC1(n2c(NC(=O)CC3CC(F)(F)C3(F)F)nc3c(F)ccc(C#N)c32)CCC1 (single isomer, unassigned) [Example 548, N-(7-cyano-4-fluoro-1-(1-methylcyclobutyl)-1H-benzo[d]imidazol-2-yl)-2-(2,2,3,3-tetrafluorocyclobutyl)acetamide] | < 1000 nM
9 | CC1(n2c(NC(=O)CC3CC(F)(F)C3(F)F)nc3ccc(F)c(Br)c32)CCC1 (single isomer, unassigned) [Example 549, N-(7-bromo-6-fluoro-1-(1-methylcyclobutyl)-1H-benzo[d]imidazol-2-yl)-2-(2,2,3,3-tetrafluorocyclobutyl)acetamide] | < 1000 nM
10 | N#Cc1ccc2nc(NC(=O)CC3CC(F)(F)C3(F)F)n(-c3ccc(F)cc3)c2c1 (single isomer, unassigned) [Example 551, N-(6-cyano-1-(4-fluorophenyl)-1H-benzo[d]imidazol-2-yl)-2-(2,2,3,3-tetrafluorocyclobutyl)acetamide] | < 1000 nM
11 | COc1cc(C#N)cc2c1nc(NC(=O)CC1CC(F)(F)C1(F)F)n2C1(C)CCC1 (single isomer, unassigned) [Example 553, N-(6-cyano-4-methoxy-1-(1-methylcyclobutyl)-1H-benzo[d]imidazol-2-yl)-2-(2,2,3,3-tetrafluorocyclobutyl)acetamide] | < 1000 nM
12 | CC(C(=O)Nc1nc2ccc(Cl)c(F)c2n1C1(C)CCC1)C1(C(F)(F)F)CC1 (single isomer, unassigned) [Example 556, N-(6-chloro-7-fluoro-1-(1-methylcyclobutyl)-1H-benzo[d]imidazol-2-yl)-2-(1-(trifluoromethyl)cyclopropyl)propanamide] | < 1000 nM
13 | CC(C)(C)n1c(NC(=O)CC2CC(F)(F)C2(F)F)nc2cc(F)c(F)cc21 (single isomer, unassigned) [Example 557, N-(1-(tert-butyl)-5,6-difluoro-1H-benzo[d]imidazol-2-yl)-2-(2,2,3,3-tetrafluorocyclobutyl)acetamide] | < 1000 nM
14 | CC(C)(C)n1c(NC(=O)CC2CC(F)(F)C2(F)F)nc2cc(F)c(F)cc21 (single isomer, unassigned) [Example 558, N-(1-(tert-butyl)-5,6-difluoro-1H-benzo[d]imidazol-2-yl)-2-(2,2,3,3-tetrafluorocyclobutyl)acetamide] | 1000 to 3000 nM
15 | CC1(n2c(NC(=O)CC3CC(F)(F)C3(F)F)nc3cc(F)c(F)c(F)c32)CCC1 (single isomer, unassigned) [Example 559, 2-(2,2,3,3-tetrafluorocyclobutyl)-N-(5,6,7-trifluoro-1-(1-methylcyclobutyl)-1H-benzo[d]imidazol-2-yl)acetamide] | < 1000 nM
16 | CC(C)(C)n1c(NC(=O)CC2CC(F)(F)C2(F)F)nc2c(F)cc(F)cc21 (single isomer, unassigned) [Example 560, N-(1-(tert-butyl)-4,6-difluoro-1H-benzo[d]imidazol-2-yl)-2-(2,2,3,3-tetrafluorocyclobutyl)acetamide] | < 1000 nM

More lines, now with the values ahead:

Row | EC50 | SMILES
17 | < 1000 nM | CC(C)(O)c1cc(F)c2nc(NC(=O)CC3CC(F)(F)C3(F)F)n(C3(C)CCC3)c2c1 (single isomer, unassigned) [Example 519, N-(4-fluoro-6-(2-hydroxypropan-2-yl)-1-(1-methylcyclobutyl)-1H-benzo[d]imidazol-2-yl)-2-(2,2,3,3-tetrafluorocyclobutyl)acetamide]
18 | < 1000 nM | CC1(n2c(NC(=O)CC3CC(F)(F)C3(F)F)nc3cc(F)cc(F)c32)CCC1 (single isomer, unassigned) [Example 523, N-(5,7-difluoro-1-(1-methylcyclobutyl)-1H-benzo[d]imidazol-2-yl)-2-(2,2,3,3-tetrafluorocyclobutyl)acetamide]
19 | < 1000 nM | CC1(n2c(NC(=O)CC3CC(F)(F)C3(F)F)nc3cc(F)ccc32)CCC1 (single isomer, unassigned) [Example 525, N-(5-fluoro-1-(1-methylcyclobutyl)-1H-benzo[d]imidazol-2-yl)-2-(2,2,3,3-tetrafluorocyclobutyl)acetamide]
20 | < 1000 nM | CC1(n2c(NC(=O)CC3CC(F)(F)C3(F)F)nc3cc(F)ccc32)CCC1 (single isomer, unassigned) [Example 526, N-(5-fluoro-1-(1-methylcyclobutyl)-1H-benzo[d]imidazol-2-yl)-2-(2,2,3,3-tetrafluorocyclobutyl)acetamide]
21 | < 1000 nM | CC(C)(C)n1c(NC(=O)CC2CC(F)(F)C2(F)F)nc2cc(F)ccc21 (single isomer, unassigned) [Example 528, N-(1-(tert-butyl)-5-fluoro-1H-benzo[d]imidazol-2-yl)-2-(2,2,3,3-tetrafluorocyclobutyl)acetamide]
22 | < 1000 nM | CC(C)(C)n1c(NC(=O)CC2CC(F)(F)C2(F)F)nc2cc(F)ccc21 (single isomer, unassigned) [Example 529, N-(1-(tert-butyl)-5-fluoro-1H-benzo[d]imidazol-2-yl)-2-(2,2,3,3-tetrafluorocyclobutyl)acetamide]
23 | < 1000 nM | CC(C)(C)n1c(NC(=O)CC2CC(F)(F)C2(F)F)nc2cc(F)cc(F)c21 (single isomer, unassigned) [Example 532, N-(1-(tert-butyl)-5,7-difluoro-1H-benzo[d]imidazol-2-yl)-2-(2,2,3,3-tetrafluorocyclobutyl)acetamide]
24 | < 1000 nM | CC(C)(C)n1c(NC(=O)CC2CC(F)(F)C2(F)F)nc2cc(F)c(Cl)cc21 (single isomer, unassigned) [Example 535, N-(1-(tert-butyl)-6-chloro-5-fluoro-1H-benzo[d]imidazol-2-yl)-2-(2,2,3,3-tetrafluorocyclobutyl)acetamide]
25 | < 1000 nM | CC1(n2c(NC(=O)CC3CC(F)(F)C3(F)F)nc3ccc(F)c(C#N)c32)CCC1 (single isomer, unassigned) [Example 536, N-(7-cyano-6-fluoro-1-(1-methylcyclobutyl)-1H-benzo[d]imidazol-2-yl)-2-(2,2,3,3-tetrafluorocyclobutyl)acetamide]
26 | < 1000 nM | CC1(n2c(NC(=O)CC3CC(F)(F)C3(F)F)nc3ccc(F)c(C#N)c32)CCC1 (single isomer, unassigned) [Example 537, N-(7-cyano-6-fluoro-1-(1-methylcyclobutyl)-1H-benzo[d]imidazol-2-yl)-2-(2,2,3,3-tetrafluorocyclobutyl)acetamide]
